Measured values published in US4774381A, “Herbicide resistant tobacco” (E. I. Du Pont de Nemours and Company, priority 1985, dated 1988).

Legend:
S4/S4 callus = experiment: Callus growth test with chlorsulfuron and structural analogues; type: cell-based, Nicotiana tabacum; settings: 10 ppb compound, 2 weeks in the dark
Protocol: (§1) In these growth tests, petri dishes containing C1 agar medium and 10 ppb of the sulfonamide herbicide chlorsulfuron and Compounds A through E were prepared. A sterile filter paper disc was placed in the center of each plate, and inoculated with 250 mg of callus tissue homozygous for the S4 mutation, or callus tissue derived from the haploid parent H1. The resulting cultures were incubated at 25° in the dark for 2 weeks. At the conclusion of the incubation period, filter discs containing callus cells were removed from culture dishes, placed on a Buchner funnel, and gentle suction applied to remove excess water. The resulting callus mass was then carefully scraped from the filter disc and weighed. Four replicates were included in each experiment.

H1 (parent) callus = experiment: as above; type: cell-based, Nicotiana tabacum; settings: 10 ppb compound, 2 weeks in the dark
Protocol: as §1

[1] = test system: parental and homozygous normal plants; experiment: Foliar spray whole plant test; type: in vivo, Nicotiana tabacum; settings: 5 mL spray
Protocol: (§2) Further studies of the effect of the S4 mutation on whole plant response to chlorsulfuron were conducted with plants of the parental variety and progeny of homozygous mutant and homozygous normal isolates (Nos. 16 and 1, respectively) of the previously described backcross program. Accordingly, plants of the latter two types were derived, but separated by four generations, from the initial S4 mutant plant regenerated from callus culture.
(§3) Plants at the 4-5 leaf stage were treated with foliar sprays of an aqueous solution containing 10% (v/v) acetone, 0.2% polyoxyethylene sorbitan monolaurate (Tween 20 ), and 1,3, 10, 30 or 100 ppm chlorsulfuron. Each plant received 5 mL of a spray solution. Two weeks after treatment, plants were evaluated for phytotoxicity and shoot heights were measured. […] At this lowest level of application, apical buds and youngest leaves of these sensitive plants were chlorotic. […] These symptoms were more pronounced with increasing chlorsulfuron concentrations. […] In contrast, homozygous mutant plants were unaffected by treatment with chlorsulfuron, even at the highest test concentration of 100 ppm.

[2] = test system: homozygous mutant (S4) plants; experiment: Foliar spray whole plant test; type: in vivo, Nicotiana tabacum
Protocol: as §2, §3

[3] = test system: Isolate 30 (S4/S4) cell line; experiment: Callus growth test; type: cell-based, Nicotiana tabacum; settings: 14 days
Protocol: (§4) Callus growth tests were conducted substantially according to the following procedure. Approximately 50 mg callus tissue, grown on non-selective media, was spread over 7 cm diameter paper filter discs (Whatman No. 1), which were placed on the medium surface of petri dishes containing C1 agar media and varying concentrations of chlorsulfuron. The resulting cultures were incubated for 14 days at 25±1°, under fluorescent lamps programmed to provide a 16-hour photoperiod per day. At the conclusion of the incubation period, tissue was scraped from each filter disc and weighed. The final fresh weights were recorded, and means and standard errors of the means determined for all cases. The significance of differences between responses of individual cell lines to various concentrations of chlorsulfuron was determined at a probability level of 5% by a t-test for populations having different standard deviations, as described by Snedecor, et al., Statistical Methods (Iowa State University Press, Ames, Iowa, (1967), pp. 114-116).
(§5) The isolates tested were established from plants produced by self-fertilization of a S4/+ heterozygote produced by two successive backcrosses of a regenerated mutant plant to normal plants. In addition, growth responses were determined for cell cultures initiated from two individuals of the same genotype with respect to the S4 mutation. The genotypes of these cell lines were confirmed by progeny analyses of the plants from which they were derived. These precautions were intended to eliminate background variability which might otherwise obscure the effects of the resistance mutation.

[4] = test system: Isolate 16 (S4/S4) cell line; experiment: Callus growth test; type: cell-based, Nicotiana tabacum
Protocol: as §4, §5

[5] = test system: Isolate 7 (+/+) cell line; experiment: Callus growth test; type: cell-based, Nicotiana tabacum; settings: 14 days
Protocol: as §4, §5

[6] = test system: Isolate 24 (S4/+) cell line; experiment: Callus growth test; type: cell-based, Nicotiana tabacum; settings: 14 days
Protocol: as §4, §5

[7] = test system: Isolate 1 (+/+) cell line; experiment: Callus growth test; type: cell-based, Nicotiana tabacum
Protocol: as §4, §5

[8] = test system: Isolate 23 (S4/+) cell line; experiment: Callus growth test; type: cell-based, Nicotiana tabacum; settings: 14 days
Protocol: as §4, §5

[9] = Nicotiana tabacum, 336 h, chlorsulfuron 1.0 ppb, read-out: % of fresh weight at 0 ppb
[10] = Nicotiana tabacum, 336 h, chlorsulfuron 30.0 ppb, read-out: % of fresh weight at 0 ppb
[11] = Nicotiana tabacum, 336 h, chlorsulfuron 1.0 ppb, 14 days, read-out: % of fresh weight at 0 ppb
[12] = Nicotiana tabacum, 336 h, chlorsulfuron 3.0 ppb, 14 days, read-out: % of fresh weight at 0 ppb
[13] = Nicotiana tabacum, 336 h, chlorsulfuron 0.3 ppb, read-out: % of fresh weight at 0 ppb
[14] = Nicotiana tabacum, 336 h, chlorsulfuron 3.0 ppb, read-out: % of fresh weight at 0 ppb
[15] = Nicotiana tabacum, 336 h, chlorsulfuron 10.0 ppb, read-out: % of fresh weight at 0 ppb

COc1nc(C)nc(NC(=O)NS(=O)(=O)c2ccccc2Cl)n1 [Chlorsulfuron, chlorsulfuron]
Mean Fresh Weight (S4/S4 callus): 4.42 g | Mean Fresh Weight (H1 (parent) callus): 0 g | phytotoxicity two weeks after foliar spray ([1]; 1 ppm chlorsulfuron, 4-5 leaf stage): developed symptoms of phytotoxicity | phytotoxicity two weeks after foliar spray ([1]; 3 ppm chlorsulfuron): chlorosis was more severe and growth retardation readily apparent | phytotoxicity two weeks after foliar spray ([1]; 100 ppm chlorsulfuron): extreme growth inhibition, chlorosis, and necrosis | increase of resistance of plants by S4 mutation ([2]; homozygous state): at least 100 fold | phytotoxicity two weeks after foliar spray ([2]; up to highest test concentration of 100 ppm chlorsulfuron): unaffected | activity at 0.001 µg/mL [3, 9]: 98.4% | activity at 0.03 µg/mL [3, 10]: 90.3% | Fr. Wt. ([3]; chlorsulfuron 0.1 ppb): 3235 ± 159 mg | Fr. Wt. ([3]; chlorsulfuron 0.3 ppb): 3157 ± 76 mg | Fr. Wt. ([3]; chlorsulfuron 1.0 ppb): 2707 ± 250 mg | Fr. Wt. ([3]; chlorsulfuron 3.0 ppb): 3287 ± 136 mg | Fr. Wt. ([3]; chlorsulfuron 10.0 ppb): 2975 ± 139 mg | Fr. Wt. ([3]; chlorsulfuron 30.0 ppb): 2486 ± 170 mg | activity at 0.001 µg/mL [4, 11]: 95.8% | activity at 0.003 µg/mL [4, 12]: 90% | activity at 0.01 µg/mL ([4]; Nicotiana tabacum, 336 h, chlorsulfuron 10.0 ppb, 14 days, read-out: % of fresh weight at 0 ppb): 95.5% | activity at 0.03 µg/mL ([4]; Nicotiana tabacum, 336 h, chlorsulfuron 30.0 ppb, 14 days, read-out: % of fresh weight at 0 ppb): 79.9% | significance of growth inhibition (t-test, 5%) ([4]; both homozygous mutant lines (Isolates 16 and 30), concentrations below 30 ppb): neither homozygous mutant cell was significantly inhibited | Fr. Wt. ([4]; chlorsulfuron 0.1 ppb, 14 days): 3755 ± 259 mg | Fr. Wt. ([4]; chlorsulfuron 0.3 ppb, 14 days): 3778 ± 219 mg | Fr. Wt. ([4]; chlorsulfuron 1.0 ppb, 14 days): 3148 ± 196 mg | Fr. Wt. ([4]; chlorsulfuron 3.0 ppb, 14 days): 2958 ± 161 mg | Fr. Wt. ([4]; chlorsulfuron 10.0 ppb, 14 days): 3171 ± 260 mg | Fr. Wt. ([4]; chlorsulfuron 30.0 ppb, 14 days): 2625 ± 202 mg | increase of tolerance of cultured cells by S4 mutation ([4]; homozygous lines at 30 ppb versus Isolate 7 at 0.3 ppb): at least 100 fold | activity at 0.0001 µg/mL ([5]; Nicotiana tabacum, 336 h, chlorsulfuron 0.1 ppb, read-out: % of fresh weight at 0 ppb): 93.1% | activity at 0.0003 µg/mL [5, 13]: 59.8% | activity at 0.001 µg/mL [5, 9]: 9.2% | activity at 0.003 µg/mL [5, 14]: 2.5% | Fr. Wt. ([5]; chlorsulfuron 0.1 ppb): 2170 ± 94 mg | Fr. Wt. ([5]; chlorsulfuron 0.3 ppb): 1395 ± 116 mg | Fr. Wt. ([5]; chlorsulfuron 1.0 ppb): 215 ± 33 mg | Fr. Wt. ([5]; chlorsulfuron 3.0 ppb): 58 ± 4 mg | activity at 0.0003 µg/mL [6, 13]: 98.9% | activity at 0.001 µg/mL [6, 9]: 87.5% | activity at 0.003 µg/mL [6, 14]: 73% | activity at 0.01 µg/mL [6, 15]: 76.4% | activity at 0.03 µg/mL [6, 10]: 55.1% | Fr. Wt. ([6]; chlorsulfuron 0.1 ppb): 2895 ± 187 mg | Fr. Wt. ([6]; chlorsulfuron 0.3 ppb): 2842 ± 124 mg | Fr. Wt. ([6]; chlorsulfuron 1.0 ppb): 2515 ± 155 mg | Fr. Wt. ([6]; chlorsulfuron 3.0 ppb): 2099 ± 129 mg | Fr. Wt. ([6]; chlorsulfuron 10.0 ppb): 2196 ± 235 mg | Fr. Wt. ([6]; chlorsulfuron 30.0 ppb): 1585 ± 129 mg | significance of growth inhibition (t-test, 5%) ([7]; 0.1 ppb chlorsulfuron): significantly inhibited | activity at 0.0001 µg/mL ([7]; Nicotiana tabacum, 336 h, chlorsulfuron 0.1 ppb, 14 days, read-out: % of fresh weight at 0 ppb): 76.7% | activity at 0.0003 µg/mL ([7]; Nicotiana tabacum, 336 h, chlorsulfuron 0.3 ppb, 14 days, read-out: % of fresh weight at 0 ppb): 40.4% | activity at 0.001 µg/mL [7, 11]: 3.6% | activity at 0.003 µg/mL [7, 12]: 1.8% | Fr. Wt. ([7]; chlorsulfuron 0.1 ppb, 14 days): 2287 ± 198 mg | Fr. Wt. ([7]; chlorsulfuron 0.3 ppb, 14 days): 1204 ± 107 mg | Fr. Wt. ([7]; chlorsulfuron 1.0 ppb, 14 days): 106 ± 9 mg | Fr. Wt. ([7]; chlorsulfuron 3.0 ppb, 14 days): 55 ± 3 mg | activity at 0.0003 µg/mL [8, 13]: 95.8% | activity at 0.001 µg/mL [8, 9]: 93.8% | activity at 0.003 µg/mL [8, 14]: 89.9% | activity at 0.01 µg/mL [8, 15]: 57.6% | activity at 0.03 µg/mL [8, 10]: 28.1% | Fr. Wt. ([8]; chlorsulfuron 0.1 ppb): 2803 ± 153 mg | Fr. Wt. ([8]; chlorsulfuron 0.3 ppb): 2559 ± 174 mg | Fr. Wt. ([8]; chlorsulfuron 1.0 ppb): 2505 ± 134 mg | Fr. Wt. ([8]; chlorsulfuron 3.0 ppb): 2401 ± 218 mg | Fr. Wt. ([8]; chlorsulfuron 10.0 ppb): 1537 ± 90 mg | Fr. Wt. ([8]; chlorsulfuron 30.0 ppb): 749 ± 54 mg
